Results published in patent EP0334119A1, “Compounds for inhibiting the biosynthesis of lipoxygenase-derived metabolites of arachidonic acid” (BOEHRINGER INGELHEIM PHARMACEUTICALS INC., priority 1988, dated 1989).
Where a name gives a salt, the structure may show the parent alone. Read-outs that look alike come from different tables or passages of the source.

What was measured:
5-lipoxygenase [1] = molecular target: T1, 5-lipoxygenase (Homo sapiens, UniProt P09917); experiment: Inhibition of 5-lipoxygenase (5-HETE biosynthesis) in human polymorphonuclear leukocytes; type: cell-based; conditions: human PMN's, 5-HETE band vs control; test concentration 1 microM; read-out: Inhibition of 5-LO % at 1 M
T1 construct: Human PMN's (5 x 10⁶ cells/0.5 mL) in pH 7.2 phosphate buffer; endogenous in cells; host or cells: human polymorphonuclear leukocytes (PMN)
T1 sequence (P09917 1-674): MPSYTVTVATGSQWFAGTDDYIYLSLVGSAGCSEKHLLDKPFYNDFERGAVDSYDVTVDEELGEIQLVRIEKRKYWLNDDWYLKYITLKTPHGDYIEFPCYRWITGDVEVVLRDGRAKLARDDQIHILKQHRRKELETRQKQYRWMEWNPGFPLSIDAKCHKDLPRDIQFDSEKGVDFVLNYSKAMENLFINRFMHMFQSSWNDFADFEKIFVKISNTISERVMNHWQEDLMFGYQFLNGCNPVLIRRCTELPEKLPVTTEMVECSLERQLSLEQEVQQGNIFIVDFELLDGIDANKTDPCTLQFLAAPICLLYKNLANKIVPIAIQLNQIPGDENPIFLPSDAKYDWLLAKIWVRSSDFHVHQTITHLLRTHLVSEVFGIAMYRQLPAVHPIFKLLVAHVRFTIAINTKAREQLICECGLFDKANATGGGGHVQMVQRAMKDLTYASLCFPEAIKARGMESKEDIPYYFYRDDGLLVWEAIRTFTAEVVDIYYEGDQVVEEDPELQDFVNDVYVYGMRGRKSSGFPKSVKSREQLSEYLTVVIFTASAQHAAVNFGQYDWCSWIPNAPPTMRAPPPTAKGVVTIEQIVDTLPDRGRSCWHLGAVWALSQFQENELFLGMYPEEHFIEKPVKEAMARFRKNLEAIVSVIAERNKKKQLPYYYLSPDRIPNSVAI
Protocol: Inhibition of 5-Lipoxygenase in Human Polymorphonuclear Leukocytes (PMN's)
The inhibition of 5-lipoxygenase is measured by determining whether and to what extent test compounds inhibit the amount of 5-HETE biosynthesized by human PMN's. 5-HETE biosynthesis serves as a marker for arachidonic acid metabolism by 5-lipoxygenase.
Human PMN's (5 x 10⁶ cells/0.5 mL) in pH 7.2 phosphate buffer containing Ca²⁺ (0.6 mM) and Mg²⁺ (1.0 mM) were incubated with test compound for 15 minutes at 37°C with shaking. Calcium ionophore A23187 (0.25 mM, 0.01 mL) and [¹⁴C] arachidonic acid (0.10 microCi in 0.025 mL 0.01N NaOH) were added, and the mixture incubated another 2.5 minutes. The reaction was terminated by the addition of 0.025 mL of 1.0 N HCl. The mixture was then extracted with ethyl acetate-methylene chloride (2:3) supplemented with 12 microgram/mL cold arachidonic acid to reduce degradation of the metabolites. After concentrating the organic phase, the number of microlitres containing 5 x 10⁴ cpm was determined and that volume applied to a silica gel plate. The plate was developed in methylene-chloride-methanol-acetic acid-water (90:8:1:0.8), air dried, and counted on a Berthold linear TLC analyzer. The integrated area of the 5-HETE band was determined and compared with the control (no drug).
In cases where the IC₅₀ was determined, the result is shown in microM.

5-lipoxygenase [2] = experiment: Inhibition of antigen-induced, late phase inflammatory cell infiltration in guinea pigs; type: in vivo; conditions: 60 minutes before antigen challenge, lung lavage four hours after challenge
Text: Inhibition of Antigen-Induced, Late Phase Inflammatory Cell Infiltration in Guinea Pigs
This model is used to measure the ability of a drug to inhibit 5-lipoxygenase in vivo. In addition to SRS-A, a chemotactic substance LTB₄ is also released by cells in the sensitized guinea pig lung upon stimulation by antigen. As a result there is a measurable influx of cells into the lung. Therefore, an inhibitor of 5-lipoxygenase could reduce the formation of LTB₄ and thereby reduce the cell influx into the lung.
Male outbred Hartley strain albino guinea pigs (250-300 grams) were sensitized to ovalbumin as in the procedure for inhibition of antigen-induced, SRS-A mediated bronchioconstriction in conscious guinea pigs.
Sensitized guinea pigs were fasted and pretreated with pyrilamine and indomethacin as in bronchioconstriction testing procedure. Test compounds, suspended in 1% acacia, were administered 60 minutes before antigen challenge. […] Whole lung lavage was performed with three 5 mL aliquots of normal saline buffered with sodium bicarbonate.
Total cell counts were performed on a Coulter Counter, and differential cell counts were performed. Compounds were evaluated for their ability to alter the antigen-induced total cell influx and, more specifically, neutrophil (PMN) influx.

[3] = test system: A23187-Induced LTB₄ Generation; experiment: Ex vivo inhibition of A23187-induced LTB4 generation in squirrel monkey blood; parameters: species or system Squirrel Monkeys; conditions: Primates
Protocol: Ex Vivo Inhibition of A23187-Induced LTB₄ Generation in Squirrel Monkeys.
Incubation of squirrel monkey whole blood with calcium ionophore A23187 stimulates the production of LTB₄. This LTB₄ production can be inhibited by a lipoxygenase inhibitor in vitro by incubating the blood with the inhibitor prior to A23187 challenge. By dosing squirrel monkeys with a lipoxygenase inhibitor prior to withdrawal of a blood sample, one can determine the ability of the lipoxygenase inhibitor to be absorbed into the bloodstream by measuring the inhibition of A23187 induced LTB₄ production ex vivo.
Squirrel monkeys (400-650g) were fasted for 18 hours, anesthetized and dosed either orally or intraperitoneally with test compound. After the desired time period, blood was withdrawn from the femoral vein. The blood (0.5 mL) was heparinized, preincubated at 37°C for 5 minutes and stimulated with A23187 in DMSO to give a final concentration of 30 microM. The reaction was terminated with EGTA (final concentration 10 microM), and the blood centrifuged. Levels of LTB₄ in the plasma were then determined by radioimmunoassay.
The results shown in Table 4 illustrate the ability of a prodrug of type 2a or 2b to be absorbed after ip or po dosing compared to the parent compound 1a.

[4] = 1 h, 30 mg/kg ip, 60 min after dosing, vehicle per footnotes 2-4, read-out: Percent Inh. Monkey 2
[5] = 1 h, 30 mg/kg ip, 60 min after dosing, vehicle per footnotes 2-4, read-out: Percent Inh. Monkey 3
[6] = 1 h, 30 mg/kg ip, 60 min after dosing, vehicle per footnotes 2-4, read-out: Percent Inh. Monkey #1
[7] = 1 h, 30 mg/kg po, 60 min after dosing, vehicle per footnotes 2-4, read-out: Percent Inh. Monkey 2
[8] = 1 h, 30 mg/kg po, 60 min after dosing, vehicle per footnotes 2-4, read-out: Percent Inh. Monkey #1

Row | inhibition at 1 µM (5-lipoxygenase [1]) [%] | Structure (SMILES) | also measured
1 | 59 | CCc1cc(C=Cc2cccnc2)cc(CC)c1O [Compound 1aa] | 
2 | 61 | C=CCc1cc(C=Cc2cccnc2)cc(C)c1O [Compound 1ac] | 
3 | 71 | COc1ccc(C=Cc2cc(C(C)C)c(O)c(C(C)C)c2)cc1 [Compound 1av] | 
4 | 57 | COc1ccc(C=Cc2cc(C(C)C)c(O)c(C(C)C)c2)cc1OC [Compound 1aw] | 
5 | 32 | CC(C)c1cc(C=Cc2ccc(F)cc2)cc(C(C)C)c1O [Compound 1ax] | 
6 | 34 | CC(C)c1cc(C=Cc2cccc(C(F)(F)F)c2)cc(C(C)C)c1O [Compound 1ay] | 
7 | 63 | COc1ccc(C=Cc2cc(F)c(O)c(OC)c2)cc1 [Compound 1az] | 
8 | 77 | Cc1cc(C=Cc2ccc(Cl)s2)cc(C)c1O [Compound 1b] | 
9 | 62 | Cc1ccc(C=Cc2cc(C)c(O)c(C)c2)s1 [Compound 1c] | 
10 | 76 | COc1cc(C=Cc2ccc(Cl)s2)cc(C)c1O [Compound 1g] | 
11 | 70 | CCc1cc(C=Cc2cccs2)cc(CC)c1O [Compound 1i, 2,6-Diethyl-4-[2-(2-thienyl)ethenyl]phenol] | % Inh. PMN (5-lipoxygenase [2]; 30 mg/kg ip): 74%; % Inh. Total Cells (5-lipoxygenase [2]; 30 mg/kg ip): 51%; % Inh. PMN (5-lipoxygenase [2]; 30 mg/kg po): 51%; % Inh. Total Cells (5-lipoxygenase [2]; 30 mg/kg po): 65%
12 | 65 | Cc1cc(C=Cc2cccs2)cc(F)c1O [Compound 1k] | 
13 | 84 | Cc1cc(C=Cc2cccs2)cc(Cl)c1O [Compound 1l] | 
14 | 65 | COc1cc(C=Cc2cccs2)cc(F)c1O [Compound 1m] | 
15 | 78 | COc1cc(C=Cc2cccs2)cc(OC)c1O [Compound 1n] | 
16 | 70 | COc1cc(C=Cc2ccsc2)cc(C)c1O [Compound 1p] | 
17 | 77 | COc1cc(C=Cc2ccsc2)cc(OC)c1O [Compound 1q] | 
18 | 82 | CCc1cc(C=Cc2ccsc2)cc(OC)c1O [Compound 1r] | 
19 | 75 | Cc1cc(C=Cc2ccsc2)cc(Cl)c1O [Compound 1s] | 
20 | 59 | COc1cc(C=Cc2ccsc2)cc(F)c1O [Compound 1t] | 
21 | 66 | CCc1cc(C=Cc2ccsc2)cc(CC)c1O [Compound 1u] | 
22 | 75 | C=CCc1cc(C=Cc2ccsc2)cc(C)c1O [Compound 1v] | 
23 | 77 | Cc1cc(C=Cc2ccccn2)cc(C)c1O [Compound 1w] | 
24 | 46 | Cc1cc(C=Cc2ccncc2)cc(C)c1O [Compound 1y] | 
25 |  | Cc1cc(C=Cc2cccs2)cc(C)c1OC(=O)CCC(=O)O [Compound 2a, 2,6-Dimethyl-4-[2-(2-thienyl)ethenyl]phenyl succinate] | inhibition at 30 mg/kg [3, 4]: 83%; inhibition at 30 mg/kg [3, 5]: 89%; inhibition at 30 mg/kg [3, 6]: 62%; inhibition at 30 mg/kg [3, 7]: 71%; inhibition at 30 mg/kg ([3]; 1 h, 30 mg/kg po, 60 min after dosing, vehicle per footnotes 2-4, read-out: Percent Inh. Monkey 3): 66%; inhibition at 30 mg/kg [3, 8]: 50%; inhibition at 30 mg/kg ([3]; 2 h, 30 mg/kg po, 120 min after dosing, dissolved in dilute alkali, read-out: Percent Inh. Monkey 2): 100%; inhibition at 30 mg/kg ([3]; 2 h, 30 mg/kg po, 120 min after dosing, dissolved in dilute alkali, read-out: Percent Inh. Monkey 3): 61%; inhibition at 30 mg/kg ([3]; 2 h, 30 mg/kg po, 120 min after dosing, dissolved in dilute alkali, read-out: Percent Inh. Monkey #1): 41%; inhibition at 30 mg/kg ([3]; 4 h, 30 mg/kg po, 240 min after dosing, dissolved in dilute alkali, read-out: Percent Inh. Monkey 2): 65%; inhibition at 30 mg/kg ([3]; 4 h, 30 mg/kg po, 240 min after dosing, dissolved in dilute alkali, read-out: Percent Inh. Monkey 3): 100%; inhibition at 30 mg/kg ([3]; 4 h, 30 mg/kg po, 240 min after dosing, dissolved in dilute alkali, read-out: Percent Inh. Monkey #1): 43%; % Inh. PMN (5-lipoxygenase [2]; 10 mg/kg po): 93%; % Inh. Total Cells (5-lipoxygenase [2]; 10 mg/kg po): 89%
26 |  | Cc1cc(C=Cc2cccs2)cc(C)c1OC(=O)CN [Compound 2b, 2,6-Dimethyl-4-[2-(2-thienyl)ethenyl]phenyl glycinate hydrochloride] | inhibition at 30 mg/kg ([3]; 1 h, 24 mg/kg instead of 30 mg/kg po, 60 min after dosing, dissolved in distilled water, read-out: Percent Inh. Monkey 3): 33%; inhibition at 30 mg/kg [3, 4]: 56%; inhibition at 30 mg/kg [3, 5]: 69%; inhibition at 30 mg/kg [3, 6]: 78%; inhibition at 30 mg/kg [3, 7]: 54%; inhibition at 30 mg/kg [3, 8]: 62%

Row | Structure (SMILES) | inhibition at 1 µM (5-lipoxygenase [1]) [%] | also measured
27 | C=CCc1cc(C=Cc2cccs2)cc(C)c1O [Compound 1h] | 70 | % Inh. PMN (5-lipoxygenase [2]; 10 mg/kg ip): 46%; % Inh. Total Cells (5-lipoxygenase [2]; 10 mg/kg ip): 55%
28 | CC(C)c1cc(C=Cc2cccs2)cc(C(C)C)c1O [Compound 1j] | 78 | 
29 | COc1cc(C=Cc2cccnc2)cc(C)c1O [Compound 1z] | 52 | 
